The values below come from US9885088B2, “Rapid phenotypic diagnosis of pathogens and drug resistance using transcriptional expression signatures” (priority 2010, dated 2018).

In brackets after ≈: the same amount, converted by molar mass. Like-named read-outs stand apart in the source and are kept apart here. Bounds are passed on as bounds.

Experiment [1] deals with E. coli. Format: cell-based. Conditions: wild-type E. coli K-12, 10-30 minute exposure.
Experiment [2] deals with E. coli. Briefly: microbe, parasite or virus in culture. In kind it is cell-based.
Experiment [3] deals with M. tuberculosis. Briefly: microbe, parasite or virus in culture. Format: cell-based.
The test system of experiment [4] is M. tuberculosis. In kind it is cell-based.
In experiment [5] the test system is M. tuberculosis. The note with it: M. tuberculosis after drug exposure, cited from earlier work; for Magnitude of induction/repression in prior microarray-based assays, RV1570 bioD: gene RV1570 (bioD); for Magnitude of induction/repression in prior microarray-based assays, RV1570 bioD / Magnitude of induction/repression in prior microarray-based assays, RV1606 hisI / Magnitude of induction/repression in prior microarray-based assays, Rv0984 moaB2 / Magnitude of induction/repression in prior microarray-based assays, Rv2296 haloalkane / Magnitude of induction/repression in prior microarray-based assays, Rv2364c era: purpose RIF; for Magnitude of induction/repression in prior microarray-based assays, RV1606 hisI: gene RV1606 (hisI); for Magnitude of induction/repression in prior microarray-based assays, RV3675: gene RV3675 (Rv3675); for Magnitude of induction/repression in prior microarray-based assays, RV3675 / Magnitude of induction/repression in prior microarray-based assays, Rv2245 kasA / Magnitude of induction/repression in prior microarray-based assays, Rv2247 accD6 / Magnitude of induction/repression in prior microarray-based assays, Rv2846c efpA / Magnitude of induction/repression in prior microarray-based assays, Rv3801c fadD32: purpose INH; for Magnitude of induction/repression in prior microarray-based assays, Rv0055 rpsR: gene Rv0055 (rpsR); for Magnitude of induction/repression in prior microarray-based assays, Rv0055 rpsR / Magnitude of induction/repression in prior microarray-based assays, Rv1317c alkA / Magnitude of induction/repression in prior microarray-based assays, Rv2737c recA / Magnitude of induction/repression in prior microarray-based assays, Rv2790c ltp1 / Magnitude of induction/repression in prior microarray-based assays, Rv3296 lhr: purpose FQ; for Magnitude of induction/repression in prior microarray-based assays, Rv0667 rpoB: gene Rv0667 (rpoB); for Magnitude of induction/repression in prior microarray-based assays, Rv0667 rpoB / Magnitude of induction/repression in prior microarray-based assays, Rv1980c mpt64 / Magnitude of induction/repression in prior microarray-based assays, Rv2703 sigA / Magnitude of induction/repression in prior microarray-based assays, Rv3583c: purpose control; for Magnitude of induction/repression in prior microarray-based assays, Rv0813c CHP: gene Rv0813c (CHP); for Magnitude of induction/repression in prior microarray-based assays, Rv0813c CHP / Magnitude of induction/repression in prior microarray-based assays, Rv1511 gmdA / Magnitude of induction/repression in prior microarray-based assays, Rv1608c bcpB / Magnitude of induction/repression in prior microarray-based assays, Rv1832 gcvB / Magnitude of induction/repression in prior microarray-based assays, Rv3417c groEL: purpose SM; for Magnitude of induction/repression in prior microarray-based assays, Rv0984 moaB2: gene Rv0984 (moaB2); for Magnitude of induction/repression in prior microarray-based assays, Rv1317c alkA: gene Rv1317c (alkA); for Magnitude of induction/repression in prior microarray-based assays, Rv1511 gmdA: gene Rv1511 (gmdA); for Magnitude of induction/repression in prior microarray-based assays, Rv1608c bcpB: gene Rv1608c (bcpB); for Magnitude of induction/repression in prior microarray-based assays, Rv1832 gcvB: gene Rv1832 (gcvB); for Magnitude of induction/repression in prior microarray-based assays, Rv1980c mpt64: gene Rv1980c (mpt64); for Magnitude of induction/repression in prior microarray-based assays, Rv2245 kasA: gene Rv2245 (kasA); for Magnitude of induction/repression in prior microarray-based assays, Rv2247 accD6: gene Rv2247 (accD6); for Magnitude of induction/repression in prior microarray-based assays, Rv2296 haloalkane: gene Rv2296 (haloalkane); for Magnitude of induction/repression in prior microarray-based assays, Rv2364c era: gene Rv2364c (era); for Magnitude of induction/repression in prior microarray-based assays, Rv2703 sigA: gene Rv2703 (sigA); for Magnitude of induction/repression in prior microarray-based assays, Rv2737c recA: gene Rv2737c (recA); for Magnitude of induction/repression in prior microarray-based assays, Rv2790c ltp1: gene Rv2790c (ltp1); for Magnitude of induction/repression in prior microarray-based assays, Rv2846c efpA: gene Rv2846c (efpA); for Magnitude of induction/repression in prior microarray-based assays, Rv3296 lhr: gene Rv3296 (lhr); for Magnitude of induction/repression in prior microarray-based assays, Rv3417c groEL: gene Rv3417c (groEL); for Magnitude of induction/repression in prior microarray-based assays, Rv3583c: gene Rv3583c; for Magnitude of induction/repression in prior microarray-based assays, Rv3801c fadD32: gene Rv3801c (fadD32).

[6] abbreviates: E. coli clinical isolate CIEC9955.
Where [7] appears, read: Mycobacterium tuberculosis, H37RV.

In the case of `CC1(C)S[C@@H]2[C@H](NC(=O)[C@H](N)c3ccccc3)C(=O)N2[C@H]1C(=O)O` [Ampicillin], the “changes in transcript levels (drug-susceptible expression signature)” value in the experiment with E. coli [1] was “expected changes in transcript levels”. For the same compound, the “Sensitive (S) or Resistant (R)” value with E. coli [2] (setting [6]) is “R”; with E. coli [2] (E. coli strain K12), “S”. Also, the MIC was more than 250 mg/L in the experiment on E. coli [2] (Escherichia coli, E. coli clinical isolate CIEC0838, read-out: MIC); more than 250 mg/L with E. coli [2] (Escherichia coli, E. coli clinical isolate CIEC2219, read-out: MIC); more than 250 mg/L with E. coli [2] (Escherichia coli, E. coli clinical isolate CIEC9181, read-out: MIC); more than 250 mg/L in the experiment with E. coli [2] (Escherichia coli, E. coli clinical isolate CIEC9955, read-out: MIC); 8 mg/L (≈ 22.9 µM) in the experiment with E. coli [2] (Escherichia coli, E. coli strain DH5α, read-out: MIC); 4 mg/L (≈ 11.4 µM) in the experiment with E. coli [2] (Escherichia coli, E. coli strain J53, read-out: MIC). Further, the MIC with E. coli [2] (Escherichia coli, E. coli strain K12, read-out: MIC) worked out at 4 mg/L (≈ 11.4 µM).

On to `O=C(O)c1cn(C2CC2)c2cc(N3CCNCC3)c(F)cc2c1=O` [Ciprofloxacin], for which the MIC against M. tuberculosis [3] came out at 16 mg/L (≈ 48.3 µM).

Consider `NNC(=O)c1ccncc1` [Isoniazid], for which the MIC in the experiment on M. tuberculosis [3] (Mycobacterium tuberculosis, BAA812) is 0.4 mg/L (≈ 2.92 µM); in the experiment with M. tuberculosis [3] (setting [7]), 0.05 mg/L (≈ 0.365 µM). Besides, the “genes with drug-dependent induction” value in the experiment on M. tuberculosis [4] is “kasA, fadD32, accD6, efpA, and Rv3675.1”.

For the compound `CO[C@H]1/C=C/O[C@@]2(C)Oc3c(C)c(O)c4c(O)c(c(/C=N/N5CCN(C)CC5)c(O)c4c3C2=O)NC(=O)/C(C)=C\C=C\[C@H](C)[C@H](O)[C@@H](C)[C@@H](O)[C@@H](C)[C@H](OC(C)=O)[C@@H]1C` [RIF], in the experiment on M. tuberculosis [5], the “Magnitude of induction/repression in prior microarray-based assays, RV1570 bioD” value is given as 1.2; the “Magnitude of induction/repression in prior microarray-based assays, RV1606 hisI” value is 1.5; the “Magnitude of induction/repression in prior microarray-based assays, RV3675” value is on record as 0.0; the “Magnitude of induction/repression in prior microarray-based assays, Rv0055 rpsR” value is reported as −0.9. Also, in the experiment with M. tuberculosis [5], the “Magnitude of induction/repression in prior microarray-based assays, Rv0667 rpoB” value was 0.1; the “Magnitude of induction/repression in prior microarray-based assays, Rv0813c CHP” value is 0.3; the “Magnitude of induction/repression in prior microarray-based assays, Rv0984 moaB2” value is recorded as 1.7; the “Magnitude of induction/repression in prior microarray-based assays, Rv1317c alkA” value is 0.5. Also, in the experiment on M. tuberculosis [5], the “Magnitude of induction/repression in prior microarray-based assays, Rv1511 gmdA” value is recorded as −0.3; the “Magnitude of induction/repression in prior microarray-based assays, Rv1608c bcpB” value was 0.3; the “Magnitude of induction/repression in prior microarray-based assays, Rv1832 gcvB” value is given as −0.4; the “Magnitude of induction/repression in prior microarray-based assays, Rv1980c mpt64” value is given as −1.2. For the same compound, in the experiment on M. tuberculosis [5], the “Magnitude of induction/repression in prior microarray-based assays, Rv2245 kasA” value is reported as −1.0; the “Magnitude of induction/repression in prior microarray-based assays, Rv2247 accD6” value is listed as −0.8; the “Magnitude of induction/repression in prior microarray-based assays, Rv2296 haloalkane” value is given as 1.2; the “Magnitude of induction/repression in prior microarray-based assays, Rv2364c era” value is reported as 1.4. In the experiment with M. tuberculosis [5], the “Magnitude of induction/repression in prior microarray-based assays, Rv2703 sigA” value is on record as −1.4; the “Magnitude of induction/repression in prior microarray-based assays, Rv2737c recA” value is reported as −0.6; the “Magnitude of induction/repression in prior microarray-based assays, Rv2790c ltp1” value is given as −0.7; the “Magnitude of induction/repression in prior microarray-based assays, Rv2846c efpA” value is listed as −0.9. In the experiment with M. tuberculosis [5], the “Magnitude of induction/repression in prior microarray-based assays, Rv3296 lhr” value is 0.2; the “Magnitude of induction/repression in prior microarray-based assays, Rv3417c groEL” value is −0.9; the “Magnitude of induction/repression in prior microarray-based assays, Rv3583c” value is listed as −1.8; the “Magnitude of induction/repression in prior microarray-based assays, Rv3801c fadD32” value is on record as −0.6.

For the compound `CO[C@H]1/C=C/O[C@@]2(C)Oc3c(C)c(O)c4c(O)c(c(/C=N/N5CCN(C)CC5)c(O)c4c3C2=O)NC(=O)/C(C)=C\C=C\[C@H](C)[C@H](O)[C@@H](C)[C@@H](O)[C@@H](C)[C@H](OC(C)=O)[C@@H]1C` [Rifampin], the “genes with drug-dependent induction” value with M. tuberculosis [4] is “bioD, hisI, era, and Rv2296”.

The compound `[H]/N=C(/N)N[C@H]1[C@H](O)[C@@H](O)[C@H](O[C@@H]2O[C@@H](C)[C@](O)(C=O)[C@H]2O[C@@H]2O[C@@H](CO)[C@H](O)[C@@H](O)[C@@H]2NC)[C@@H](N/C(N)=N\[H])[C@@H]1O` [Streptomycin] returned an MIC in the experiment on M. tuberculosis [3] (setting [7]) of 1 mg/L (≈ 1.72 µM). In the experiment on M. tuberculosis [5], the “Magnitude of induction/repression in prior microarray-based assays, RV1570 bioD” value was −0.3; the “Magnitude of induction/repression in prior microarray-based assays, RV1606 hisI” value is on record as −0.4; the “Magnitude of induction/repression in prior microarray-based assays, RV3675” value is 0.0; the “Magnitude of induction/repression in prior microarray-based assays, Rv0055 rpsR” value is 1.7. In the experiment on M. tuberculosis [5], the “Magnitude of induction/repression in prior microarray-based assays, Rv0667 rpoB” value is 1.4; the “Magnitude of induction/repression in prior microarray-based assays, Rv0813c CHP” value is 3.8; the “Magnitude of induction/repression in prior microarray-based assays, Rv0984 moaB2” value is −1.1; the “Magnitude of induction/repression in prior microarray-based assays, Rv1317c alkA” value is recorded as 0.4. In the experiment with M. tuberculosis [5], the “Magnitude of induction/repression in prior microarray-based assays, Rv1511 gmdA” value is reported as 1.6; the “Magnitude of induction/repression in prior microarray-based assays, Rv1608c bcpB” value was 2.2; the “Magnitude of induction/repression in prior microarray-based assays, Rv1832 gcvB” value was 1.3; the “Magnitude of induction/repression in prior microarray-based assays, Rv1980c mpt64” value is listed as 0.4. Also, in the experiment on M. tuberculosis [5], the “Magnitude of induction/repression in prior microarray-based assays, Rv2245 kasA” value was −1.9; the “Magnitude of induction/repression in prior microarray-based assays, Rv2247 accD6” value is −0.8; the “Magnitude of induction/repression in prior microarray-based assays, Rv2296 haloalkane” value is 0.1; the “Magnitude of induction/repression in prior microarray-based assays, Rv2364c era” value was −0.6. Moreover, in the experiment on M. tuberculosis [5], the “Magnitude of induction/repression in prior microarray-based assays, Rv2703 sigA” value is recorded as 0.4; the “Magnitude of induction/repression in prior microarray-based assays, Rv2737c recA” value is on record as −0.1; the “Magnitude of induction/repression in prior microarray-based assays, Rv2790c ltp1” value was −1.1; the “Magnitude of induction/repression in prior microarray-based assays, Rv2846c efpA” value is −0.7. Also, in the experiment with M. tuberculosis [5], the “Magnitude of induction/repression in prior microarray-based assays, Rv3296 lhr” value was 0.1; the “Magnitude of induction/repression in prior microarray-based assays, Rv3417c groEL” value is 1.6; the “Magnitude of induction/repression in prior microarray-based assays, Rv3583c” value is recorded as 1.0; the “Magnitude of induction/repression in prior microarray-based assays, Rv3801c fadD32” value was 0.8. In the experiment on M. tuberculosis [4], the “genes with drug-dependent induction” value is “CHP, bcpB, gcvB, and groEL”.

Regarding Gentamicin, in the experiment on E. coli [1], the “changes in transcript levels (drug-susceptible expression signature)” value was “expected changes in transcript levels”. The “Sensitive (S) or Resistant (R)” value in the experiment on E. coli [2] was “S and R”. In addition, the MIC in the experiment with E. coli [2] (E. coli clinical isolate CIEC1676) was 8 mg/L; against E. coli [2] (E. coli clinical isolate CIEC1801) it was 8 mg/L; with E. coli [2] (E. coli clinical isolate CIEC2219) it was 125 mg/L; in the experiment with E. coli [2] (E. coli clinical isolate CIEC4940) it was more than 250 mg/L; against E. coli [2] (E. coli clinical isolate CIEC9181), more than 250 mg/L; against E. coli [2] (setting [6]) it was 16 mg/L. In the experiment with E. coli [2] (E. coli strain K12), the MIC is 8 mg/L.
